Measured values from patent publication US20190343907A1, “Synergistic Compositions and Methods of Achieving Homeostasis in Mammalian Systems” (priority 2017, published 2019).

What was measured:
shingles = experiment: Case history: shingles; assay type: in vivo, human; settings: prescription taken, within 1 week
Description: A person was diagnosed with shingles on the lower jaw and on the scalp. […] The subject was given the lotion of Example 1 with instructions to pre-treat the area with a menthol cream five minutes before applying the treatment cream. Twice daily application to the border of the shingles lesions along the axis of red streaks prevented further expansion of the […] lesions. In areas of blisters that had not ruptured, application of the treatment cream caused the blisters to recede and not rupture. […] Episodes of recurring post-herpetic neuralgia were treated successfully over the next six weeks with the cream giving reduction of redness, itching and pain.

migraine headaches = experiment: Case history: migraine headaches; assay type: in vivo, human; settings: prescription, same subject
Description: A person experienced stress-induced episodes of migraine headaches five to six times/year, each preceded by a “trigger signal” of slight dizziness or light-headedness. […] The lotion of Example 1 was supplied by the subject. […] No migraine episodes have occurred in the past eight months.

## Nc1nc2c(ncn2COCCO)c(=O)[nH]1 [acyclovir]
shingles
  relief from pain or itching: no relief from pain or itching

## CNS(=O)(=O)Cc1ccc2[nH]cc(CCN(C)C)c2c1 [Sumatriptan]
Migraine headaches
  migraine pain relief: slow to relieve the pain
